Measured values from publication PMC6934184, “Selective DNA-PKcs inhibition extends the therapeutic index of localized radiotherapy and chemotherapy” (The Journal of Clinical Investigation, 2019).

Molecular target: T1, ADRBK2 (GRK3) (Homo sapiens, UniProt P35626)
T1 construct: purchased Thermo Fisher Scientific (Life Technologies) SelectScreen
Experiment: SelectScreen Z'LYTE
Assay type: biochemical
In short: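 SelectScreen broad panel; activity (Z'LYTE, Adapta) plus binding formats. ATP: Km app for CSF1R Z'LYTE; 10 for CAMK1 Adapta. Readout = % per kinase.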

T1 sequence (P35626 whole entry): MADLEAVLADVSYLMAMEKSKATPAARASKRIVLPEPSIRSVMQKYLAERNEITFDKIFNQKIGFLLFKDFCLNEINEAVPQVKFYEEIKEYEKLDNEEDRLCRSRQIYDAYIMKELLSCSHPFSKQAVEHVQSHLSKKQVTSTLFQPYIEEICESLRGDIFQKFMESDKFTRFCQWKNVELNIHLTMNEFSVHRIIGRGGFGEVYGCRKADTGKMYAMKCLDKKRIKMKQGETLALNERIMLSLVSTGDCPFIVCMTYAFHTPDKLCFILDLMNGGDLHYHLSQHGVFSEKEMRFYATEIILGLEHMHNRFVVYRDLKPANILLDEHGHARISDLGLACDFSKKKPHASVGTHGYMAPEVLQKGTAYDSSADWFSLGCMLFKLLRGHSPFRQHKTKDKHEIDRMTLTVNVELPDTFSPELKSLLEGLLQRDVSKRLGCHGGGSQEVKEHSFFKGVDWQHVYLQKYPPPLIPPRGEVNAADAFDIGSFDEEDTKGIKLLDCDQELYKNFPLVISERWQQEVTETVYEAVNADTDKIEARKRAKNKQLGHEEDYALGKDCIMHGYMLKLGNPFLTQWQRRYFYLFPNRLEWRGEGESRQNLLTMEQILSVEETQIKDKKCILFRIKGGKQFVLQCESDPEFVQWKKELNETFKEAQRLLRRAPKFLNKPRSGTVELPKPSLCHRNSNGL

SMILES: CN(C(=O)CN1CCOCC1)c1ccc2sc3c(-c4cccc5c(=O)cc(N6CC7CCC(C6)O7)oc45)cccc3c2c1 [NU5455]
- inhibition at 1 µM: 2.8%
